System: female Balb/C mice
Assay: Cisplatin-induced myelosuppression
Assay type: in vivo, mouse
Details: for survival: day 11
Description: A study was conducted to assess the effects of N^2,3′,5′-tripalmitoyldeoxyguanosine (PdG) in reducing the hematologic toxicity of cisplatin. Female Balb/C mice were divided into groups of five animals each per dose per time point. Half of the groups were given a series of three daily doses of PdG (25 mg/kg) by intraperitoneal injection and the other half were treated with the vehicle alone. Twenty-four hours later, the animals were given a single dose of cisplatin by intraperitoneal injection at one of four doses: 8, 11, 12 or 15 mg/kg. Blood samples were taken by retro-orbital eye bleed at four, seven and 11 days after administration of cisplatin.

[1] = day 4 after cisplatin 8 mg/kg, PdG 25 mg/kg x3 before
[2] = day 4 after cisplatin 11 mg/kg, PdG 25 mg/kg x3 before
[3] = day 4 after cisplatin 12 mg/kg, PdG 25 mg/kg x3 before
[4] = day 4 after cisplatin 15 mg/kg, PdG 25 mg/kg x3 before
[5] = day 7 after cisplatin 8 mg/kg, PdG 25 mg/kg x3 before
[6] = day 7 after cisplatin 11 mg/kg, PdG 25 mg/kg x3 before
[7] = day 7 after cisplatin 12 mg/kg, PdG 25 mg/kg x3 before
[8] = day 7 after cisplatin 15 mg/kg, PdG 25 mg/kg x3 before
[9] = day 11 after cisplatin 8 mg/kg, PdG 25 mg/kg x3 before
[10] = day 11 after cisplatin 11 mg/kg, PdG 25 mg/kg x3 before
[11] = day 11 after cisplatin 12 mg/kg, PdG 25 mg/kg x3 before
[12] = day 11 after cisplatin 15 mg/kg, PdG 25 mg/kg x3 before

## CCCCCCCCCCCCCCCC(=O)Nc1nc2c(ncn2[C@H]2C[C@H](OC(=O)CCCCCCCCCCCCCCC)[C@@H](COC(=O)CCCCCCCCCCCCCCC)O2)c(=O)[nH]1 [PdG, 3′,5′-O-N^2-tripalmitoyl-2′-deoxyguanosine]
Any time point
  effect on red blood cells: no effect
Day 4 after cisplatin 8 mg/kg, PdG 25 mg/kg i.p. 3 daily doses before
  WBC: 10.2 ± 1.4 K/μL
[1]
  Lymphocytes: 8.0 ± 0.9 K/μL
  Neutrophils: 1.77 ± 0.3 K/μL
[2]
  Lymphocytes: 7.9 ± 1.1 K/μL
  Neutrophils: 3.99 ± 0.7 K/μL
  WBC: 7.2 ± 0.6 K/μL
[3]
  Lymphocytes: 5.14 ± 1.0 K/μL
  Neutrophils: 1.59 ± 0.3 K/μL
  WBC: 6.9 ± 0.9 K/μL
[4]
  Lymphocytes: 4.37 ± 0.61 K/μL
  Neutrophils: 2.69 ± 1.3 K/μL
  WBC: 7.1 ± 1.0 K/μL
[5]
  Lymphocytes: 5.38 ± 0.71 K/μL
  Neutrophils: 2.74 ± 0.50 K/μL
  Platelets: 910 ± 135 K/μL
[6]
  Lymphocytes: 5.44 ± 0.22 K/μL
  Neutrophils: 4.58 ± 0.3 K/μL
  Platelets: 974 ± 49 K/μL
  WBC: 9.4 ± 0.83 K/μL
[7]
  Lymphocytes: 5.14 ± 0.91 K/μL
  Neutrophils: 3.23 ± 0.7 K/μL
  WBC: 8.5 ± 0.9 K/μL
[8]
  Lymphocytes: 2.80 ± 0.44 K/μL
  Neutrophils: 4.06 ± 0.46 K/μL
  WBC: 7.0 ± 0.38 K/μL
12 mg/kg cisplatin (60% of the controls had died)
  survival: All
15 mg/kg cisplatin (all control animals dead)
  survival: three of five
[9]
  Lymphocytes: 7.9 ± 0.5 K/μL
  Neutrophils: 1.33 ± 0.32 K/μL
  Platelets: 994 ± 29 K/μL
  WBC: 9.3 ± 0.3 K/μL
[10]
  Lymphocytes: 7.9 ± 1.23 K/μL
  Neutrophils: 1.00 ± 0.37 K/μL
  Platelets: 968 ± 47 K/μL
  WBC: 8.7 ± 1.0 K/μL
[11]
  Lymphocytes: 5.34 ± 0.73 K/μL
  Neutrophils: 3.26 ± 0.48 K/μL
  Platelets: 738 ± 35 K/μL
  WBC: 8.7 ± 0.6 K/μL
[12]
  Lymphocytes: 7.65 ± 0.49 K/μL
  Neutrophils: 2.02 ± 0.68 K/μL
  Platelets: 657 ± 113 K/μL
  WBC: 9.7 ± 0.3 K/μL
Day four, cisplatin 8 mg/kg
  platelet counts higher than in vehicle-treated control animals: approximately 30%
